One assay has as its target hNAMPT protein (Homo sapiens (Human), UniProt P43490). Briefly: NAMPT enzyme assay (TR-FRET/HTRF with BodiPY ligand). The class given is binding. Particulars: for inhibition at 1 µM: NAMPT inhibition at compound concentration 1 μM, read-out: Percent Inhibition; for pIC50: NAMPT inhibition, IC50 range class. The text has this: As discussed above, the invention provides compounds that are useful as inhibitors of the enzyme NAMPT. The NAMPT inhibition of a compound of the invention can be measured using a variety of methods known in the art. For example, the ability of a compound of the invention to inhibit NAMPT enzyme activity can be measured using a homogeneous time resolved fluorescence (HTRF) assay using hNAMPT protein and anti 6His-Tb in buffer treated with a compound of the invention (or control e.g., DMSO) and BodiPY ligand. The TR-FRET signal can be measured using a high throughput microplate reader (e.g., Pherastar). Excitation can be carried out at 320 nm. The percent inhibition value at a single concentration of compound of the invention can be calculated relative to a control treated sample. A concentration response curve can be generated for each compound of the invention and the curve fitted to generate an IC50 value. […] To measure the inhibition of NAMPT activity hNAMPT protein stock and anti 6His-Tb (Cisbio; Cat. No. […]TLB) is diluted to 3× final concentration with assay buffer (50 mM Tris-HCl (pH 7.5), 1 mM DTT, 100 mM NaCl, 10 mM MgCl2, 0.005% Tween 20). To this solution is added a test compound or vehicle control (DMSO) and BodiPY ligand (structure below). The plate is shaken for 1-2 min sealed and incubated for 1 h at rt in the dark. The TR-FRET signal is measured using BMG Pherastar (Lanthascreen protocol on BMG Pherastar). Excitation was carried out at 320 nm, and the ratio of emission of BodiPY (520 nm) to terbium (486 nm) was determined. Concentration response curves are generated by calculating the excitation increase in test compound-treated samples relative to DMSO-treated controls. For the assay method described above, test compound percent inhibition values at a single concentration are calculated relative to control (DMSO) treated samples. Compound concentration response curves are fitted to generate IC50 values from those curves. One skilled in the art will appreciate that these values generated either as percentage inhibition at a single concentration or IC50 values are subject to experimental variation.
Background: TR-FRET usually uses a lanthanide donor and a delayed reading to cut background.

Another assay concerns PC3 cells. Briefly: PC3 growth inhibition (Cell-titer glo, 72 hours). The format is cell-based. The following applies: Homo sapiens, PC-3, 72 h, read-out: Percent Viability, PC3 cells, compound concentration 1.667 μM, 72 hours. The method, then: The invention also provides compounds that inhibit cell growth. The ability of a compound of the invention to inhibit the growth of cells can be measured using a variety of methods known in the art. For example, the ability of a compound of the invention to inhibit the growth of PC3 cells can be measured. PC3 cells can be plated and incubated overnight under CO2. For each measurement, a compound of the invention (or vehicle e.g., DMSO) can be diluted with AIM serum free medium and added to the cell plate. The cell plate can then be incubated for 72 h under CO2. Cell-titer glo solution can be added and the plates can be incubated protected from light and the amount of luminescences can be measured. Concentration response curves can be generated by calculating the luminescence increase in test compound treated samples relative to DMSO-treated controls. Percentage remaining viability values at a single concentration can be measured. Growth inhibition (GI50) or cell viability (LD50) values can be determined from thoses curves. In one embodiment, compounds of the invention have a percent viability in PC3 line @ 1.667 uM of <1%. In one embodiment, compounds of the invention have a percent viability in PC3 line @ 1.667 uM of <2%. In one embodiment, compounds of the invention have a percent viability in PC3 line @ 1.667 uM of <3%. In one embodiment, compounds of the invention have a percent viability in PC3 line @ 1.667 uM of <4%. In one embodiment, compounds of the invention have a percent viability in PC3 line @ 1.667 uM of <5%. In one embodiment, compounds of the invention have a percent viability in PC3 line @ 1.667 uM of <10%. In one embodiment, compounds of the invention have a percent viability in PC3 line @ 1.667 uM of <50%.
To measure PC3 growth inhibition, PC3 cells that were maintained in RPMI1640 growth medium (Life Technologies; Cat. No. 11875) at 37° C. under 5% CO2 are trypsinized and diluted at a density of 8×10^4 cells/ml, 25 ul per well of cells and plated in 384-well black tissue culture plate. The cells are incubated overnight at 37° C. under 5% CO2. For each measurement, a test compound or vehicle DMSO control is diluted with AIM serum free medium and added to the cell plate. The cell plate is incubated for 72 hours at 37° C. under 5% CO2. 25 μl Cell-titer glo solution (Promega; Cat. No. G8462) is added and the cell plates are incubated for 10 minutes protected from light. The luminescence is measured. Concentration response curves are generated by calculating the luminescence increase in test compound-treated samples relative to DMSO-treated controls. Percentage remaining viability values at a single concentration, growth inhibition (GI50) or cell viability (LD50) values are determined from those curves. One skilled in the art will appreciate that these values are subject to experimental variation.

pIC50: −log10 of the molar value.

Sequence of hNAMPT protein (P43490 whole entry): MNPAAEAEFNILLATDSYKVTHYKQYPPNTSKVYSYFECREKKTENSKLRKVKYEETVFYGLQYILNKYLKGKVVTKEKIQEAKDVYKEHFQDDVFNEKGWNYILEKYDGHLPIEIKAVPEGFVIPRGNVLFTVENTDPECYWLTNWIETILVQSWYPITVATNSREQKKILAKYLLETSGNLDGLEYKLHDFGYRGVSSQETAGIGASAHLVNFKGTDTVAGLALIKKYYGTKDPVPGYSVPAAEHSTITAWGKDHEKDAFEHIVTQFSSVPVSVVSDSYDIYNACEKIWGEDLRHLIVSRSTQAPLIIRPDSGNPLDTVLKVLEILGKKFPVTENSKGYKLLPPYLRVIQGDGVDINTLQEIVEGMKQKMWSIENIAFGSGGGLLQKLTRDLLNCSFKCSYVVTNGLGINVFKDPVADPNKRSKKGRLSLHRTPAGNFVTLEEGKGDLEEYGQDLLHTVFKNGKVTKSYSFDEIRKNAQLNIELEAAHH

Take `CCOc1cc(-c2cnc(OC)cc2C)nc2cc(C(=O)NCCCc3nnc[nH]3)ccc12` [Compound I-145, 4-ethoxy-2-(6-methoxy-4-methyl-3-pyridyl)-N-[3-(4H-1,2,4-triazol-3-yl)propyl]quinoline-7-carboxamide]: at hNAMPT protein, the inhibition at 1 µM stood at 86% and the pIC50 is less than 7.00. Also, in the assay on PC3 cells, the viability at 1.667 µM was determined as 2%.
On to `CCOc1cc(-c2cc(F)ccc2OC)nc2cc(C(=O)NCc3nc4cnccc4[nH]3)ccc12` [Compound I-187, 4-ethoxy-2-(5-fluoro-2-methoxyphenyl)-N-(1H-imidazo[4,5-c]pyridin-2-ylmethyl)quinoline-7-carboxamide], for which, on hNAMPT protein, the inhibition at 1 µM was greater than 99% and the pIC50 was greater than 8.00. The viability at 1.667 µM in the assay on PC3 cells amounted to 3%.
The like results for `CCOc1cc(-c2cccnc2OC)nc2cc(C(=O)NCCc3c[nH]nc3C)ccc12` [Compound I-144, 4-ethoxy-2-(2-methoxypyridin-3-yl)-N-[2-(3-methyl-1H-pyrazol-4-yl)ethyl]quinoline-7-carboxamide] were, in that order, 94%, 7.30 to 8.00 and 2%.
Regarding `CCOc1cc(-c2ccc(C)nc2OC)nc2cc(C(=O)NCCCc3[nH]nnc3C)ccc12` [Compound I-94, 4-ethoxy-2-(2-methoxy-6-methylpyridin-3-yl)-N-[3-(4-methyl-1H-1,2,3-triazol-5-yl)propyl]quinoline-7-carboxamide], on hNAMPT protein, the inhibition at 1 µM was determined as 97% and the pIC50 was 7.30 to 8.00. Besides, in the assay with PC3 cells, the viability at 1.667 µM worked out at 1%.
The like results for `CCOc1cc(-c2ccc(C)nc2)nc2cc(C(=O)NCCCc3cc[nH]n3)ccc12` [Compound I-111, 4-ethoxy-2-(6-methylpyridin-3-yl)-N-[3-(1H-pyrazol-3-yl)propyl]quinoline-7-carboxamide] were, in that order, 97%, 7.30 to 8.00 and 2%.
Taken in the same sequence, the figures for `CCOc1cc(-c2ccc(F)cc2OC)nc2cc(C(=O)NCCCc3cc[nH]n3)ccc12` [Compound I-128, 4-ethoxy-2-(4-fluoro-2-methoxyphenyl)-N-[3-(1H-pyrazol-3-yl)propyl]quinoline-7-carboxamide] were 96%, 7.30 to 8.00 and 2%.
As to `CCc1nc(-c2ccc(Cl)cc2)nc2cc(C(=O)NCCCc3ncc[nH]3)ccc12` [Compound I-33, 2-(4-chlorophenyl)-4-ethyl-N-[3-(1H-imidazol-2-yl)propyl]quinazoline-7-carboxamide], at hNAMPT protein, the inhibition at 1 µM was 97% and the pIC50 is 7.30 to 8.00. In the assay on PC3 cells, the viability at 1.667 µM came out at 1%.
`CCOc1cc(-c2ccnc(C)c2)nc2cc(C(=O)NCc3ccc4ncnn4c3)ccc12` [Compound I-74, 4-ethoxy-2-(2-methylpyridin-4-yl)-N-([1,2,4]triazolo[1,5-a]pyridin-6-ylmethyl)quinoline-7-carboxamide]: at hNAMPT protein, the inhibition at 1 µM is 100% and the pIC50 is greater than 8.00. Also, in the assay with PC3 cells, the viability at 1.667 µM was found to be 1%.
In the case of `CC(C)Oc1cc(-c2ccc(F)cc2)nc2cc(C(=O)NCCCc3ncc[nH]3)ccc12` [Compound I-17, 2-(4-fluorophenyl)-N-[3-(1H-imidazol-2-yl)propyl]-4-isopropoxyquinoline-7-carboxamide], on hNAMPT protein, the inhibition at 1 µM was determined as 99% and the pIC50 was greater than 8.00. In addition, in the assay on PC3 cells, the viability at 1.667 µM came to 0%.
Taken in the same sequence, the figures for `CCOc1cc(-c2ccc(C(F)(F)F)nc2)nc2cc(C(=O)NCCCc3nnc[nH]3)ccc12` [Compound I-217, 4-ethoxy-N-[3-(4H-1,2,4-triazol-3-yl)propyl]-2-[6-(trifluoromethyl)pyridin-3-yl]quinoline-7-carboxamide] were 94%, 7.30 to 8.00 and 2%.
Regarding `CCOc1cc(-c2ccc(F)cc2)nc2cc(C(=O)NCCCc3nnc[nH]3)ccc12` [Compound I-5, 4-ethoxy-2-(4-fluorophenyl)-N-[3-(4H-1,2,4-triazol-3-yl)propyl]quinoline-7-carboxamide], at hNAMPT protein, the inhibition at 1 µM was determined as 100% and the pIC50 was greater than 8.00. Besides, the viability at 1.667 µM in the assay with PC3 cells worked out at 1%.
The like results for `COCCOc1cc(-c2ccc(F)cc2)nc2cc(C(=O)NCC(F)(F)Cc3nnc[nH]3)ccc12` [Compound I-81, N-[2,2-difluoro-3-(4H-1,2,4-triazol-3-yl)propyl]-2-(4-fluorophenyl)-4-(2-methoxyethoxy)quinoline-7-carboxamide] were, in that order, 67%, less than 7.00 and 2%.
In the case of `CCOc1cc(-c2ccc(C)nc2OC)nc2cc(C(=O)NCCCc3cnn[nH]3)ccc12` [Compound I-103, 4-ethoxy-2-(2-methoxy-6-methylpyridin-3-yl)-N-[3-(1H-1,2,3-triazol-5-yl)propyl]quinoline-7-carboxamide], on hNAMPT protein, the inhibition at 1 µM is greater than 99% and the pIC50 is 7.30 to 8.00. In addition, in the assay with PC3 cells, the viability at 1.667 µM came to 2%.
As to `CCOc1cc(-c2ccc(F)c(Cl)c2)nc2cc(C(=O)NCCCc3ncc[nH]3)ccc12` [Compound I-56, 2-(3-chloro-4-fluorophenyl)-4-ethoxy-N-[3-(1H-imidazol-2-yl)propyl]quinoline-7-carboxamide], at hNAMPT protein, the inhibition at 1 µM came out at 99% and the pIC50 is greater than 8.00. In addition, the viability at 1.667 µM in the assay on PC3 cells amounted to 1%.
As to `CCOc1cc(-c2ccc(F)cc2)nc2cc(C(=O)NCCc3nn[nH]n3)ccc12` [Compound I-221, 4-ethoxy-2-(4-fluorophenyl)-N-[2-(2H-tetrazol-5-yl)ethyl]quinoline-7-carboxamide], on hNAMPT protein, the inhibition at 1 µM is 53% and the pIC50 is less than 7.00. In addition, the viability at 1.667 µM in the assay with PC3 cells was 89%.
For `CCOc1cc(-c2ccc(OC)nc2OC)nc2cc(C(=O)NCCCc3nnc[nH]3)ccc12` [Compound I-143, 2-(2,6-dimethoxypyridin-3-yl)-4-ethoxy-N-[3-(4H-1,2,4-triazol-3-yl)propyl]quinoline-7-carboxamide], at hNAMPT protein, the inhibition at 1 µM turned out to be 97% and the pIC50 is 7.30 to 8.00. For the same compound, the viability at 1.667 µM with PC3 cells was found to be 2%.
Taken in the same sequence, the figures for `COCCOc1cc(-c2ccc(F)cc2)nc2cc(C(=O)NCCCc3n[nH]nc3C)ccc12` [Compound I-66, 2-(4-fluorophenyl)-4-(2-methoxyethoxy)-N-[3-(5-methyl-2H-1,2,3-triazol-4-yl)propyl]quinoline-7-carboxamide] were 94%, 7.30 to 8.00 and 2%.

Usually inhibition stands for the relative decrease from the control value, in per cent. For orientation: pIC50 means −log10 of the IC50, conventionally taken in molar units. Low values mean a large IC50, high ones a small IC50.
